{"source": "patent US20040037780A1", "about": "“Respiratory delivery for gene therapy and lentiviral delivery particle” (priority 2001, published 2004)", "key": {"[1]": {"system": "nasal airway surface epithelium", "assay": "Transepithelial potential difference (TPD) after penetrating agent, damage of epithelia", "format": "in vivo, mice", "conditions": "for recovery of TDP function: longer time course, FIG. 11", "text": "The method of choice for assessing an appropriate level of damage is by the measurement of transepithelial potential difference (TDP) (Middleton et al., 1994; Knowles et al., 1995; Lee et al., 1999). In general, damage to epithelium with penetrating agents cause at least opening of the tight junctions and this causes the resident negative TPD on the airway surface to go toward zero. If there is exfoliation (that is substantial damage) then the TPD goes to zero quickly and takes several days to return to normal because the epithelia cells have been stripped off and have to regenerate.\nMeasurement of TPD was performed under zero-chloride perfusion to give a larger baseline TPD value from which to measure change. Under these conditions the values are typically around −20 mV compared to about −5 mV if normal perfusion saline is used. Mice are anaesthetised, TPD cannula is inserted, then the detergent dose is instilled in the same nostril, the effect is then followed in this anterior part of the nose. The methods used for measuring TDP are largely as described in Parsons et al., 1998. For method for use in human see Middleton et al., 1994 and Knowles et al., 1995.\nThe dosage of detergent used is 4 μl of PBS, PDOC of LPC and is in line with methods used in the above examples. The solutions of detergent use are 0.01, 0.1 and 1.0%. The TDP value was determined 5 minutes after administration of the detergent. The values are presented graphically in FIG. 8. […] A score of 100% represents the pretest TDP value. […] A TDP value of less than about 60% is though to be preferable.\nThe same doses of LPC were used as for experiment 1 but TDP was measured at 2, 5 and 10 minutes after administration. The data are presented graphically in FIG. 9. […] Thus should 0.01% LPC be used for treatment of the lung then lentivirus should be delivered within 10 minutes.\nThis uses that same doses of PDOC as in experiment 1 and as in experiment 2 TDP was measured at 2, 5 and 10 minutes after administration. The data from this experiment are presented graphically in FIG. 10.\nTDP was measured over a longer time course using PDOC as the penetrating agent. The doses used in this experiment were (per mouse) 10 μl of 1.0% PDOC, 4 μl of 1.0% PDOC and 4 μl of 0.1% PDOC. […] A recovery of TDP function within about 1 day is considered to be transient."}, "[2]": {"system": "nasal airway epithelium", "assay": "LV-mediated LacZ gene transfer into mouse nasal airway (X-gal, count of LacZ positive cells)", "format": "in vivo, C57B1/6 mice", "conditions": "for LacZ positive cells ± SEM: 3 standard cross-sections, n=3"}, "[3]": {"system": "A549", "assay": "Effect of detergent on viral gene transfer in vitro, non-polarised cells", "format": "cell-based", "conditions": "AdV5CMVLacZ vector added 10, 30 and 60 mins following polidocanol treatment", "method": "(§1) The effect of detergents (polidocanol and lysophospatidylcholine) on the level of viral gene transfer were firstly evaluated in vitro.\n(§2) Initial experiments made use of the AdV5CMVLacZ vector (a generous gift from Dr. R. C. Boucher). […] This dose of polidocanol was assessed on polarised cells (MDCK) and also non-polarised cells (A549). The AdV vector was added at 10, 30 and 60 mins following treatment. […] When the experiments were repeated using the LV vector we found the same effect."}, "[4]": {"system": "MDCK", "assay": "Effect of detergent on viral gene transfer in vitro, polarised cells", "format": "cell-based", "conditions": "AdV5CMVLacZ vector added 10, 30 and 60 mins following polidocanol treatment, P<0.05", "method": "as §1, §2"}, "[5]": {"system": "nasal airway epithelium", "assay": "Adenoviral (AdlLacZ) LacZ gene transfer into mouse nasal airway after detergent pre-treatment", "format": "in vivo, mice", "conditions": "4 μl detergent (SDS 0.25%, ZWIT 0.14%, DEOXY 0.17%) 1 h before AdlLacZ 1×10^9 pfu; 3 days; FIG. 7", "method": "The detergents tested were Sodium n-dodecyl sulfate (SDS), (an anionic detergent) at 0.25%, Zwittergent 3-14: N-Tetradecylsulfobetaine (ZWIT) (a zwitterionic detergent) at 0.14%, Cetyltrimethylammonium bromide (CTAB) (an ionic detergent) at 0.15%, Deoxycholic Acid (DEOXY) (an ionic detergent) at 0.17%, with phosphate buffered saline as a control.\nDetergents were made up fresh to nominated concentrations. A single 4 μl dose was used per mouse (all were approximately 20 gm body weight). An Adenoviral vector (AdlLacZ) dose of 1×10^9 pfu in 20 μl. Mice were anaesthetised with Xylamine/Ketamine i.m.; then suspended vertically (hanging on dorsal incisor teeth). The detergent dose was instilled into the nostril opening in one bolus via a micropipettor.\nThe mouse was set aside for one hour; re-anaesthetised as needed, 1 hour later 20 μl of viral vector was instilled into the same nostril. The mouse was allowed to recover and returned to caging. Three days later the mice were killed with CO2 excess, head removed and the nasal airways were flushed with fixative. These were taken through standard “X-gal” processing to reveal blue stained cells that represent LacZ gene transfer. Cells were processing to wax sections and stained with Safranin-O or haemotoxylin/oesin. Stained cells present along the perimeter of 3 standard cross-sections in the treated nasal airway were counted. […]"}, "[6]": {"system": "freshly-excised mouse nasal airway epithelium", "conditions": "unpublished data"}, "[7]": {"system": "nasal airway epithelium", "assay": "Histological injury after dosing with LPC alone", "format": "in vivo, mouse", "conditions": "1% LPC alone"}, "[8]": {"system": "CFTR-mediated chloride secretion", "assay": "Nasal TPD/ΔPD measurement of CFTR function after LVCFTR dosing", "format": "in vivo", "conditions": "homozygote cftr^tmlUnc mice, 1% LPC 1 h prior to PBS (control) instillation; 7 days later", "method": "C57B1/6 and cftr^tmlUnc mice (Snouwaert et al., 1992) were used under the approval of both the Women's and Children's Hospital and the University of Adelaide Animal Ethics Committees. C57B1/6 mice (6-7 weeks of age), or cftr^tmlUnc mice (8-20 weeks of age) were anaesthetised intramuscularly with 1 μl/g and 0.7 μl/g body weight respectively of a 3:2 mixture of xylazil (20 mg/ml):ketamine (100 mg/ml) respectively. Body temperature was maintained during anaesthesia with a heat pad, or heat lamp and during the recovery period the mice were placed in a 35° C. air chamber. For dosing, mice were suspended from their dorsal incisors (hindquarters supported) and pre-treatment solutions (4 μl of LPC (Sigma L-4129), or polidocanol (Sigma P-9641), prepared as w/v solutions in PBS) delivered as a bolus into the right nostril using a gel-loading tip (Finnpippette). […] The mice were monitored for respiratory distress and any loss of treatment solution was noted. […]\nCFTR gene expression: Mice were anaesthetised, suspended from their dorsal incisors (hindquarters supported) and a subcutaneous needle-agar bridge (as reference electrode) was placed in the abdomen. […] TPD values were measured (blinded) from chart paper recordings, and the ΔPD value was calculated by subtracting the TPD value recorded under basal conditions from the TPD value measured under low-chloride conditions. […]"}, "[9]": {"conditions": "0.1% pre-treatment (4 μl) 1 h before 20 μl LVLacZa (6×10^4 NIH3T3-TU), 7 days"}, "[10]": {"conditions": "1% pre-treatment (4 μl), then PBS instead of vector, 7 days"}}, "data": [{"compound": "polyoxyethylene 9-lauryl ether [PDOC]", "values": [{"measurement": "effect on TDP value", "setting": "[1]; 4 μl of 0.01, 0.1 and 1.0% solutions, 5 minutes after administration, FIG. 8", "result": "greater effect on TDP value than LPC"}, {"measurement": "recovery of TDP function", "setting": "[1]; 4 μl of 0.1% PDOC", "result": "rapidly recovers"}, {"measurement": "recovery of TDP function", "setting": "[1]; 10 μl of 1.0% PDOC and 4 μl of 1.0% PDOC (first two doses)", "result": "extended"}, {"measurement": "LacZ positive cells ± SEM", "setting": "[2]; [9]", "result": "2.7 ± 0.3"}, {"measurement": "LacZ positive cells ± SEM", "setting": "[2]; 1% pre-treatment (4 μl) 1 h before 20 μl LVLacZa (6×10^4 NIH3T3-TU), polybrene-free, 7 days", "result": "5.3 ± 1.3"}, {"measurement": "LacZ positive cells ± SEM", "setting": "[2]; [10]", "result": "0.0 ± 0.0"}, {"measurement": "level of gene transfer between vector instillation times", "setting": "[3]", "result": "no apparent difference"}, {"measurement": "gene transfer when vector added one hour after treatment compared to shorter time points", "setting": "[4]", "result": "significantly improved"}]}, {"compound": "CCCCCCCCCCCCCC[N+](C)(C)CCCS(=O)(=O)[O-]", "note": "[Zwit, N-Tetradecylsulfobetaine]", "values": [{"measurement": "numbers of transductants over the control PBS, respiratory cells", "setting": "[5]", "result": "considerable increase in numbers of transductants"}]}, {"compound": "CCCCCCCCCCCCOS(=O)(=O)[O-].[Na+]", "note": "[SDS, Sodium n-dodecyl sulfate]", "values": [{"measurement": "numbers of transductants over the control PBS, respiratory cells", "setting": "[5]", "result": "considerable increase in numbers of transductants"}]}, {"compound": "lysophosphatidylcholine [LPC]", "values": [{"measurement": "effect on cilial beat", "setting": "[6]", "result": "dose-dependant reversibility of reduction in cilial beat"}, {"measurement": "TPD relative to pretest TPD", "setting": "[1]; 4 μl of 0.01% LPC, after 10 minutes, FIG. 9", "result": "not significantly different to pretest TPD"}, {"measurement": "LacZ positive cells ± SEM", "setting": "[2]; [9]", "result": "4.3 ± 0.7"}, {"measurement": "increase in the level of LV-mediated transduction compared to pre-treatment with 1% polidocanol", "setting": "[2]; 1% LPC pre-treatment, LVLacZa, 7 days", "result": 4, "unit": "fold"}, {"measurement": "LacZ positive cells ± SEM", "setting": "[2]; [10]", "result": "0.0 ± 0.0"}, {"measurement": "histological injury observed immediately after dosing", "setting": "[7]", "result": "limited areas of deciliation or exfoliation found anteriorly close the dosed site"}, {"measurement": "ΔPD", "setting": "[8]", "result": "+8±3.2 mV"}]}, {"compound": "polybrene", "values": [{"measurement": "number of LacZ positive cells", "setting": "[2]; 1% LPC pre-treatment, LVLacZa vector preparation containing 4 μg/ml polybrene, 7 days", "result": "5.0±1.0"}, {"measurement": "decrease in the number of LacZ positive cells on inclusion of polybrene in the LVLacZa preparation", "setting": "[2]; 1% LPC pre-treatment, vs polybrene-free LVLacZa, P=0.002", "result": 4, "unit": "fold"}]}]}
